Measured values taken from the supplement of paper PMC12350171.

Tests used:
[1] = tested on: Com21 synthetic gut community; experiment: community biomass OD578 after 24 h drug treatment relative to untreated (fraction of untreated control); higher = more community growth; details: community: Com21 (Com20 + E. coli ED1a)
Procedure: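 Com21 (Com20 plus E. coli ED1a) was treated with drug for 24 h under anaerobic conditions in mGAM. Community OD578 was then measured and normalised to untreated Com21; mean of 3 biological replicates.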

[2] = tested on: Fusobacterium nucleatum subsp. Nucleatum; experiment: IC25 growth inhibition; higher = less potent
Procedure, shortened: (§1)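 Monocultures grown overnight in mGAM were added to pre-reduced plates holding twofold drug dilutions, giving a starting OD578 of 0.01 and 1% DMSO (or water). Growth was followed anaerobically by hourly OD578 readings in a plate reader, with at least three biological replicates. The median growth-curve AUC per concentration was forced to be monotonic. IC25 was the lowest concentration with median AUC below 0.75, reported as a tested interval.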

[3] = tested on: Bacteroides thetaiotaomicron; experiment: IC25 growth inhibition; higher = less potent
Procedure, shortened: as §1

Coprococcus comes = experiment: IC25 growth inhibition; higher = less potent
Procedure, shortened: as §1

Collinsella aerofaciens = experiment: IC25 growth inhibition; higher = less potent
Procedure, shortened: as §1

Eubacterium rectale = experiment: IC25 growth inhibition; higher = less potent
Procedure, shortened: as §1

[4] = tested on: Yersinia pseudotuberculosis; experiment: IC25 growth inhibition; higher = less potent
Procedure, shortened: as §1

Roseburia intestinalis = experiment: IC25 growth inhibition; higher = less potent
Procedure, shortened: as §1

[5] = tested on: Yersinia enterocolitica WA-314; experiment: IC25 growth inhibition; higher = less potent
Procedure, shortened: as §1

Clostridium ramosum = experiment: IC25 growth inhibition; higher = less potent
Procedure, shortened: as §1

Shigella flexneri = experiment: IC25 growth inhibition; higher = less potent
Procedure, shortened: as §1

Clostridium bolteae = experiment: IC25 growth inhibition; higher = less potent
Procedure, shortened: as §1

Vibrio cholerae = experiment: IC25 growth inhibition; higher = less potent
Procedure, shortened: as §1

Bacteroides fragilis NT = experiment: IC25 growth inhibition; higher = less potent
Procedure, shortened: as §1

Dorea formicigenerans = experiment: IC25 growth inhibition; higher = less potent
Procedure, shortened: as §1

Parabacteroides merdae = experiment: IC25 growth inhibition; higher = less potent
Procedure, shortened: as §1

[6] = tested on: Streptococcus parasanguinis; experiment: IC25 growth inhibition; higher = less potent
Procedure, shortened: as §1

[7] = tested on: Salmonella enterica typhimurium; experiment: IC25 growth inhibition; higher = less potent
Procedure, shortened: as §1

Clostridium perfringens = experiment: IC25 growth inhibition; higher = less potent
Procedure, shortened: as §1

Bacteroides vulgatus = experiment: IC25 growth inhibition; higher = less potent
Procedure, shortened: as §1

[8] = tested on: Clostridium saccharolyticum; experiment: IC25 growth inhibition; higher = less potent
Procedure, shortened: as §1

Ruminococcus gnavus = experiment: IC25 growth inhibition; higher = less potent
Procedure, shortened: as §1

Escherichia coli ED1a = experiment: IC25 growth inhibition; higher = less potent
Procedure, shortened: as §1

Bacteroides uniformis = experiment: IC25 growth inhibition; higher = less potent
Procedure, shortened: as §1

Streptococcus salivarius = experiment: IC25 growth inhibition; higher = less potent
Procedure, shortened: as §1

[9] = drug pretreatment concentration 10 µM
[10] = drug pretreatment concentration 20 µM
[11] = drug pretreatment concentration 40 µM
[12] = drug pretreatment concentration 80 µM
[13] = drug pretreatment concentration 160 µM
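Wherever IC25 growth inhibition is given: lowest concentration where monotonic median growth AUC falls below 0.75 of drug-free control.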

Compound	community biomass OD578 ([1]; drug pretreatment concentration 5 µM)	community biomass OD578 [1, 9]	community biomass OD578 [1, 10]	community biomass OD578 [1, 11]	community biomass OD578 [1, 12]	IC25 growth inhibition [2]	IC25 growth inhibition [3]	IC25 growth inhibition (Coprococcus comes)	IC25 growth inhibition (Collinsella aerofaciens)	IC25 growth inhibition (Eubacterium rectale)	IC25 growth inhibition [4]	IC25 growth inhibition (Roseburia intestinalis)	IC25 growth inhibition [5]	IC25 growth inhibition (Clostridium ramosum)	IC25 growth inhibition (Shigella flexneri)	IC25 growth inhibition (Clostridium bolteae)	IC25 growth inhibition (Vibrio cholerae)	IC25 growth inhibition (Bacteroides fragilis NT)	IC25 growth inhibition (Dorea formicigenerans)	IC25 growth inhibition (Parabacteroides merdae)	IC25 growth inhibition [6]	IC25 growth inhibition [7]	IC25 growth inhibition (Clostridium perfringens)	IC25 growth inhibition (Bacteroides vulgatus)	IC25 growth inhibition [8]	IC25 growth inhibition (Ruminococcus gnavus)	IC25 growth inhibition (Escherichia coli ED1a)	IC25 growth inhibition (Bacteroides uniformis)	IC25 growth inhibition (Streptococcus salivarius)	community biomass OD578 [1, 13]
C[C@]12CCC3=C4CCC(=O)C=C4CC[C@H]3[C@@H]1CC[C@@]2(O)CC#N [Dienogest]	0.994	0.987	1.01	0.995	0.975	> 80 µM	> 80 µM	> 80 µM	> 80 µM	> 80 µM	> 80 µM	> 80 µM	> 80 µM	> 80 µM	> 80 µM	> 80 µM	> 80 µM	> 80 µM	> 80 µM	> 80 µM	> 80 µM	> 80 µM	> 80 µM	> 80 µM	> 80 µM	> 80 µM	> 80 µM	> 80 µM	> 80 µM	
COc1cccc2c1C(=O)c1c(O)c3c(c(O)c1C2=O)C[C@@](O)(C(=O)CO)C[C@@H]3O[C@H]1C[C@H](N)[C@H](O)[C@H](C)O1 [Doxorubicin]		0.978	0.949	0.918	0.881	> 160 µM	> 160 µM	≤ 40 µM	≤ 10 µM	≤ 80 µM	> 160 µM	≤ 40 µM	> 160 µM	≤ 40 µM	> 160 µM	≤ 20 µM	> 160 µM	> 160 µM	≤ 20 µM	> 160 µM	≤ 5 µM	> 160 µM	≤ 40 µM	> 160 µM	≤ 20 µM	≤ 160 µM	> 160 µM	> 160 µM	≤ 10 µM	0.907
C[C@H]1c2cccc(O)c2C(=O)C2=C(O)[C@]3(O)C(=O)C(C(N)=O)=C(O)[C@@H](N(C)C)[C@@H]3[C@@H](O)[C@@H]21 [Doxycycline]		0.062	0.06	0.064	0.065	< 1.25 µM	< 1.25 µM	≤ 40 µM	< 1.25 µM	< 1.25 µM	≤ 40 µM	< 1.25 µM	≤ 40 µM	< 1.25 µM	≤ 40 µM	< 1.25 µM	< 1.25 µM	< 1.25 µM	< 1.25 µM	≤ 40 µM	< 1.25 µM	> 160 µM	< 1.25 µM	< 1.25 µM	< 1.25 µM	≤ 40 µM	< 1.25 µM	< 1.25 µM	≤ 40 µM	0.064
CN[C@H](CC(C)C)C(=O)N[C@H]1C(=O)N[C@@H](CC(N)=O)C(=O)N[C@H]2C(=O)N[C@H]3C(=O)N[C@H](C(=O)N[C@H](C(=O)O)c4cc(O)cc(O)c4-c4cc3ccc4O)[C@H](O)c3ccc(c(Cl)c3)Oc3cc2cc(c3O[C@@H]2O[C@H](CO)[C@@H](O)[C@H](O)[C@H]2O[C@H]2C[C@](C)(N)[C@H](O)[C@H](C)O2)Oc2ccc(cc2Cl)[C@H]1O [Vancomycin]						≤ 160 µM	≤ 40 µM	< 1.25 µM	< 1.25 µM	< 1.25 µM	> 160 µM	< 1.25 µM	> 160 µM	≤ 2.5 µM	> 160 µM	< 1.25 µM	> 160 µM	≤ 10 µM	< 1.25 µM	≤ 10 µM	< 1.25 µM	> 160 µM	< 1.25 µM	≤ 2.5 µM	< 1.25 µM	< 1.25 µM	> 160 µM	≤ 20 µM	< 1.25 µM	
